“Also recorded” adds a separate entry of the source.
Assays:
SCC RDEB16 keratinocytes = test: Tumor xenograft of SCC RDEB16 keratinocytes, tumor volume by calipers; assay type: in vivo, Balb/c SCID mice; conditions: subcutaneous inoculation; dosing after tumors reached 100 mm^3, administered 6 times; harvested day 35; FIG. 2
Procedure: SCC RDEB16 keratinocytes were inoculated subcutaneously to Balb/c SCID mice. After tumors reached 100 mm^3, vehicle control, Rigosertib or Compound 1 (ATP-competitive inhibitor) were administered 6 times and tumor volume was measured with calipers. Tumors were harvested and photographed at day 35.

[1] = Phase 2 open-label single arm clinical study, safety and tolerability; assay type: in vivo, patients; conditions: single RDEB patient, CIV infusions
Procedure: A phase 2, open-label single arm was conducted. The study was designed to assess the efficacy and safety of Rigosertib in patients with recessive dystrophic epidermolysis bullosa (RDEB)-associated locally advanced/metastatic squamous cell carcinoma (SCC).
In addition to the assessment of safety and tolerability, efficacy was measured by the overall response rate as assessed by RECIST. Patients were treated until RECIST progression criteria were met (i.e. 20% increase in tumor diameter or appearance of new malignant lesions) for 12 consecutive months or until an unacceptable toxicity or intolerance, or until remission.
The study had two primary endpoints. The first was to determine the anti-tumor activity of rigosertib in RDEB patients with advanced SCC who had failed prior standard of care through the overall response rate (ORR), defined as the proportion of patients who achieved either a complete response (CR) or a partial response (PR). The second primary endpoint was to evaluate the safety and tolerability of rigosertib in the population. Secondary study endpoints included quality of life and a biomarker analysis performed on archival tissue from all patients. Patients were dosed for up to one year, with trial duration anticipated to be approximately two-and-a-half years. […]

[2] = test system: normal primary keratinocytes; test: Effect on normal primary keratinocytes after 48 hours exposure, crystal violet staining / phase contrast; assay type: cell-based; conditions: FIG. 1
Procedure: (§1) Panel A. Cells were seeded at high density and exposed to Rigosertib or vehicle control for 48 hours after which cells were fixed and stained with crystal violet. Panel B. Phase contrast images of unfixed cells in culture after given treatment of either control (left) or Rigosertib (1 μM, right).

RDEB SCC keratinocytes = test: Cell death of RDEB SCC keratinocytes after 48 hours exposure, crystal violet staining / phase contrast; assay type: cell-based
Procedure: as §1

[3] = test system: RDEB-associated locally advanced/metastatic squamous cell carcinoma (SCC); test: Phase 2 open-label single arm clinical study, tumor response (RECIST, MRI, clinical exam, histology); assay type: in vivo, patients
Procedure: The study had two primary endpoints. […] The second primary endpoint was to evaluate the safety and tolerability of rigosertib in the population. Secondary study endpoints included quality of life and a biomarker analysis performed on archival tissue from all patients. Patients were dosed for up to one year, with trial duration anticipated to be approximately two-and-a-half years.
Intravenous dosing: For continuous IV infusion as Rigosertib, sodium salt concentrate, 75 mg/mL, was formulated to contain 75 mg of Rigosertib sodium salt per mL (equivalent to 75 mg of Rigosertib sodium per mL) as a sterile solution in polyethylene glycol 400 (PEG 400) containing a small amount of sodium hydroxide for pH adjustment. Rigosertib.Na 75 mg/mL was packaged in single-use glass vials with Teflon-lined rubber stoppers containing 24 mL of drug product (1800 mg). Just prior to dosing, the Rigosertib concentrate (i.e. 1 glass vial, 24 mL) was diluted to a final volume of 500 ml in 0.9% sodium chloride for injection.
Efficacy Assessments: Overall response rate (ORR) was defined as the proportion of patients who achieved either a CR or a PR. Responses of complete remission (CR), partial remission (PR), mCR, SD, failure, and PD were determined by RECIST criteria. The number and percent of patients with CR, PR, mCR, SD, Failure or PD were summarized.
Response per RECIST criteria: Efficacy assessments included an initial tumor assessment at week 12 (±3 days) after first dose. Further tumor assessments were completed every 12 weeks (±3 days). Study evaluations were performed according to RECIST 1.1 criteria. High resolution CT with oral or IV contrast or contrast-enhanced MRI were used as imaging modalities for assessing radiographic tumor response. Screening/Baseline assessments were within 4 weeks of first dose of study drug. Brain MRI was used as an imaging method for evaluating CNS metastasis, and an assessment was required during screening/baseline and End of Therapy or as clinically indicated.
Target lesions: When more than one measurable lesion was present at baseline, all lesions up to a maximum of 5 lesions total (and a maximum of two lesions per site), representative of all involved sites, were investigated as target lesions and are recorded and measured at baseline. Target lesions were selected on the basis of size (lesions with the longest diameter) and were representative of all involved sites. A sum of the diameters (longest for non-nodal lesions, short axis for nodal lesions) for all target lesions were calculated and reported as the baseline sum diameters. If lymph nodes were included in the sum, only the short axis was added into the sum. The baseline sum diameters were used as reference to characterize any objective tumor regression in the measurable dimension of the disease. […]

[4] = one RDEB patient, intravenous rigosertib, 12 week MRI and clinic visit

COc1cc(OC)c(/C=C/S(=O)(=O)Cc2ccc(OC)c(NCC(=O)O)c2)c(OC)c1 [Rigosertib, (E)-2-(5-((2,4,6-trimethoxystyrylsulfonyl)methyl)-2-methoxyphenylamino)acetic acid]
tumor growth (tumor volume) of RDEB SCC keratinocytes in vivo (SCC RDEB16 keratinocytes): inhibits RDEB SCC keratinocyte grown in vivo | observed adverse effects [1]: CTCAE grade II irritative cystitis; also recorded: alopecia; also recorded: recurrent episode of bacteriaemia; also recorded: nausea; also recorded: increased lesional pain; also recorded: amenorrhea | safety and tolerability [1]: favorable | effect on normal primary keratinocytes [2]: without affecting normal primary keratinocytes | cell death in RDEB SCC keratinocytes (RDEB SCC keratinocytes; 48 hours exposure, Rigosertib 1 μM in phase contrast images, FIG. 1): induces cell death | specificity / therapeutic window separating tumor and normal cells (RDEB SCC keratinocytes; preclinical models, RDEB SCC keratinocytes vs normal cells): largest therapeutic window separating tumor and normal cells | metastatic disease after trial completion ([3]; RDEB patient, 17 treatment cycles): without signs of metastatic disease | remission of target lesions after trial completion ([3]; RDEB patient, 72 hr CIV infusions 1800 mg/24 h days 1-3, 17 treatment cycles): sustained clinical and histological remission of all target lesions | histology of biopsied target lesions (left hand, right elbow) ([3]; V25 (day 169-175)): no histological signs of malignancy | resolution of squamous cell target lesions (left hand), clinical exam and MRI [3, 4]: complete resolution of two of three squamous cell target lesions | third target lesion (right elbow) [3, 4]: reduction in the third target lesion

— US20240299326A1, “METHODS AND COMPOSITIONS FOR TREATING CANCER” (Onconova Therapeutics, Inc., priority 2021, published 2024)
